pIC50: −log10 of the molar value. Calls of active or inactive are those of the source. No cut-off for these calls is given here.

Among the data in ChEMBL document CHEMBL5500363, “Discovery of novel ocotillol derivatives modulating glucocorticoid receptor/NF-κB signaling for the treatment of sepsis” (Eur J Med Chem, 2024) are Activity, inhibition and IC50 values, retold here.

The subject of series [1] is RAW264.7. As to the kind of experiment: Downregulation of glucocorticoid receptor in mouse RAW264.7 cells at 1 uM incubated for 24 hrs by Western blot analysis. Format: functional, cell-based. Background: In western blotting, separated proteins are transferred to a membrane and probed.
Series [2] has as its system RAW264.7. Briefly: Downregulation of glucocorticoid receptor in LPS-treated mouse RAW264.7 cells at 1 uM incubated for 24 hrs by qRT-PCR analysis. Format: functional, cell-based.
The subject of series [3] is RAW264.7. As to the kind of experiment: Cytotoxicity against mouse RAW264.7 cells assessed as cell viability at 40 uM incubated for 24 hrs by MTT assay. It is filed as toxicity, cell-based. Conditions: raw264.7, 24 h.
The subject of series [4] is Mus musculus. Briefly: Downregulation of p65 phosphorylation in liver of LPS-induced sepsis BALB/c mouse model at 7.5 to 30 mg/kg administered via gavage for 3 days followed by LPS treatment for 6 hrs by Western blot analysis. It is filed as functional, organism-based. Conditions: dose 7.5-30 mg/kg, time 78.0 hrs.
For series [5], the system named is RAW264.7. Briefly: Inhibition of LPS-induced NO production in mouse RAW264.7 cells at 20 uM pretreated for 2 hrs followed by LPS stimulation for 24 hrs by Griess assay relative to control. The note with it: time 26 hrs. It is filed as functional. (In general: The Griess reaction detects nitrite, a stable product of nitric oxide.)
The test system of series [6] is RAW264.7. Briefly: Inhibition of LPS-induced NO production in mouse RAW264.7 cells pretreated for 2 hrs followed by LPS stimulation for 24 hrs by Griess assay. Format: functional, cell-based.
In series [7] the test system is Mus musculus. Briefly: Anti-septic activity in LPS-induced sepsis BALB/c mouse assessed as reduction in serum ALT level at 30 mg/kg administered via gavage for 3 days followed by LPS treatment for 6 hrs. It is filed as functional, organism-based. Conditions: time 78.0 hrs.
Series [8] concerns RAW264.7. As to the kind of experiment: Inhibition of LPS-induced NO production in mouse RAW264.7 cells at 10 uM pretreated for 2 hrs followed by LPS stimulation for 24 hrs by Griess assay relative to control. Format: functional. The note with it: time 26 hrs.
Series [9] relates to RAW264.7. Briefly: Inhibition of LPS-induced NO production in mouse RAW264.7 cells at 5 uM pretreated for 2 hrs followed by LPS stimulation for 24 hrs by Griess assay relative to control. Format: functional. The note with it: time 26 hrs.
Series [10] deals with RAW264.7. Briefly: Anti-inflammatory activity in LPS-treated mouse RAW264.7 cells assessed as reversal of nuclear translocation of p65 at 20 uM pretreated for 2 hrs followed by LPS stimulation for 24 hrs by immunofluorescence analysis. Format: functional, cell-based. The note with it: time 26.0 hrs.
For series [11], the system named is Mus musculus. As to the kind of experiment: Anti-septic activity in LPS-induced sepsis BALB/c mouse assessed as reduction in serum AST level at 30 mg/kg administered via gavage for 3 days followed by LPS treatment for 6 hrs. Format: functional, organism-based. Conditions: time 78.0 hrs.
Series [12] has as its system Mus musculus. As to the kind of experiment: Downregulation of I-kappa-B-alpha phosphorylation in liver of LPS-induced sepsis BALB/c mouse model at 7.5 to 30 mg/kg administered via gavage for 3 days followed by LPS treatment for 6 hrs by Western blot analysis. It is filed as functional, organism-based. Conditions: dose 7.5-30 mg/kg, time 78.0 hrs.
Series [13] concerns the target T1, Glucocorticoid receptor (Mus musculus) (UniProt P06537).
T1 sequence (whole entry): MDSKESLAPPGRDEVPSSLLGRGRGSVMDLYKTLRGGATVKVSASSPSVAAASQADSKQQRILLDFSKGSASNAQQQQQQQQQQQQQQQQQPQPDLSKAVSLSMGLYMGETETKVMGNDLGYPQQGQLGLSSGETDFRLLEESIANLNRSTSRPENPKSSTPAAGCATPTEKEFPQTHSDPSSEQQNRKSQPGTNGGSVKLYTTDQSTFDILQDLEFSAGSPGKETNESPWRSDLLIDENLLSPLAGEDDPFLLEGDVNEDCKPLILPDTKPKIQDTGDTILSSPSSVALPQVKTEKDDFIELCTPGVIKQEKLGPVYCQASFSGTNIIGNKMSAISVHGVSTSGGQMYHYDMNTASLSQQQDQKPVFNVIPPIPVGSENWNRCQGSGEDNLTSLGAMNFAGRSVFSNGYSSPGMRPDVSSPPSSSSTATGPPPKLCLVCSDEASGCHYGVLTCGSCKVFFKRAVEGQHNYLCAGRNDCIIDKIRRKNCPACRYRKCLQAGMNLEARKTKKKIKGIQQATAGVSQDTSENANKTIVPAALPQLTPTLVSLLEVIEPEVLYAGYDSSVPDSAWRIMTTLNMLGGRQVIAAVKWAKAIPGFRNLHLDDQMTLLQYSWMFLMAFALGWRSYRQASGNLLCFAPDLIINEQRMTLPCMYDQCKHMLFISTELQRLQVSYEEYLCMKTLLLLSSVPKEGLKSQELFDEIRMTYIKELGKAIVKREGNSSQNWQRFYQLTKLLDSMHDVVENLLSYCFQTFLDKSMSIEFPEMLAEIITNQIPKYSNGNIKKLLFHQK
As to the kind of experiment: Stabilization of glucocorticoid receptor in mouse RAW264.7 cells assessed as blockade of CHX-induced protein degradation at 20 uM incubated for 24 hrs by Western blot analysis. Format: cell-based.

The test system of series [14] is RAW264.7. Briefly: Anti-inflammatory activity in mouse RAW264.7 cells assessed as decrease in LPS-induced p65 phosphorylation at 20 uM pretreated for 2 hrs followed by LPS stimulation for 24 hrs by Western blot analysis. It is filed as functional, cell-based. The note with it: time 26.0 hrs.
Series [15] has as its system RAW264.7. As to the kind of experiment: Anti-inflammatory activity in mouse RAW264.7 cells assessed as decrease in LPS-induced I-kappaB-alpha phosphorylation at 20 uM pretreated for 2 hrs followed by LPS stimulation for 24 hrs by Western blot analysis. It is filed as functional, cell-based. Conditions: time 26.0 hrs.
In series [16] the test system is Mus musculus. As to the kind of experiment: Anti-septic activity in LPS-induced sepsis BALB/c mouse assessed as reduction in serum CRP level at 30 mg/kg administered via gavage for 3 days followed by LPS treatment for 6 hrs. Format: functional, organism-based. Conditions: time 78.0 hrs.
Series [17] deals with RAW264.7. As to the kind of experiment: Effect on KLF9 mRNA expression in mouse RAW264.7 cells by qPCR analysis. Format: functional, cell-based.

`C[C@@H]1C[C@H]2[C@@H]3CCC4=CC(=O)C=C[C@]4(C)[C@@]3(F)[C@@H](O)C[C@]2(C)[C@@]1(O)C(=O)CO`: the result in the series on RAW264.7 [1] and with RAW264.7 [2] was Active.

Take `Cc1nnc(NC(=O)CCC(=O)O[C@H]2CC[C@]3(C)[C@H]4C[C@@H](O)[C@@H]5C([C@]6(C)CC[C@@H](C(C)(C)O)O6)CC[C@@]5(C)[C@]4(C)CC[C@H]3C2(C)C)s1` (stereo partly specified): in the series with RAW264.7 [3], the Activity result was “Toxic”.

In the case of `CC(C)(C)OC(=O)NCCCCCCCCCCC(=O)Nc1nc2c(s1)C[C@]1(C)[C@H]3C[C@@H](O)[C@@H]4C([C@]5(C)CC[C@H](C(C)(C)O)O5)CC[C@@]4(C)[C@]3(C)CC[C@H]1C2(C)C` (stereo partly specified), in the series on RAW264.7 [3], the Activity entry was “Toxic”.

With `CC(C)(C)OC(=O)NCCCCCC(=O)Nc1nc2c(s1)C[C@]1(C)[C@H]3C[C@@H](O)[C@@H]4C([C@]5(C)CC[C@H](C(C)(C)O)O5)CC[C@@]4(C)[C@]3(C)CC[C@H]1C2(C)C` (stereo partly specified), in the series with RAW264.7 [3], the Activity result is “Toxic”.

With `CC(C)(C)OC(=O)NCCCC(=O)Nc1nc2c(s1)C[C@]1(C)[C@H]3C[C@@H](O)[C@@H]4C([C@]5(C)CC[C@H](C(C)(C)O)O5)CC[C@@]4(C)[C@]3(C)CC[C@H]1C2(C)C` (stereo partly specified), the Activity result in the series on RAW264.7 [3] is “Toxic”.

In general, inhibition refers to the share of the control response that was lost under treatment. The term pIC50 denotes the IC50 on a negative log10 scale, so that one unit is a factor of ten. For `CC(C)=CCC[C@@](C)(O)C1CC[C@]2(C)[C@@H]1[C@H](O)C[C@@H]1[C@@]3(C)CC[C@H](O)C(C)(C)[C@@H]3CC[C@]12C` (stereo partly specified), the outcome (in the series with Mus musculus [4]; with Mus musculus [12]; in [13]; in the series with RAW264.7 [17]) was inactive. Moreover, the inhibition at 20 µM in the series with RAW264.7 [5] was 31.4%. The pIC50 in the series with RAW264.7 [6] is 4.46. Also, the result in the series on Mus musculus [7], in the series on RAW264.7 [10], in the series with Mus musculus [11], in the series with RAW264.7 [14], in the series on RAW264.7 [15] and in the series with Mus musculus [16] was Active. Also, the inhibition at 10 µM in the series on RAW264.7 [8] worked out at 11.2%. Further, in the series with RAW264.7 [9], the inhibition at 5 µM is 7.09%.

On to `CC(C)(O)[C@H]1CC[C@@](C)(C2CC[C@]3(C)[C@@H]2[C@H](O)C[C@@H]2[C@@]4(C)CC[C@H](OC(=O)CCC(=O)Nc5nnc(Br)s5)C(C)(C)[C@@H]4CC[C@]23C)O1` (stereo partly specified), for which the Activity entry with RAW264.7 [3] is listed as “Toxic”.
